Reference: ChEMBL document CHEMBL5260848, “Recent advancements in the development of bioactive pyrazoline derivatives” (Eur J Med Chem, 2020)
Values belong to the molecule of their own block, whether it stands above or below them.

Columns and labels:
[1] = species: Mus musculus; test: Antidepressant activity in mouse assessed as […] by tail suspension test; format: functional
[2] = species: Mus musculus; test: Antidepressant activity in mouse assessed as […] by forced swimming test; format: functional
[3] = biological target: Carbonic anhydrase 1 (Homo sapiens, UniProt P00915); test: Inhibition of human recombinant CA1
[4] = biological target: Carbonic anhydrase 4 (Homo sapiens, UniProt P22748); test: Inhibition of human recombinant CA4
[5] = biological target: T1, Carbonic anhydrase 9 (Homo sapiens, UniProt Q16790)
[6] = biological target: Carbonic anhydrase 2 (Homo sapiens, UniProt P00918); test: Inhibition of human recombinant CA2
[7] = biological target: T2, Amine oxidase [flavin-containing] B (Homo sapiens, UniProt P27338)
T2 sequence (P27338 whole entry): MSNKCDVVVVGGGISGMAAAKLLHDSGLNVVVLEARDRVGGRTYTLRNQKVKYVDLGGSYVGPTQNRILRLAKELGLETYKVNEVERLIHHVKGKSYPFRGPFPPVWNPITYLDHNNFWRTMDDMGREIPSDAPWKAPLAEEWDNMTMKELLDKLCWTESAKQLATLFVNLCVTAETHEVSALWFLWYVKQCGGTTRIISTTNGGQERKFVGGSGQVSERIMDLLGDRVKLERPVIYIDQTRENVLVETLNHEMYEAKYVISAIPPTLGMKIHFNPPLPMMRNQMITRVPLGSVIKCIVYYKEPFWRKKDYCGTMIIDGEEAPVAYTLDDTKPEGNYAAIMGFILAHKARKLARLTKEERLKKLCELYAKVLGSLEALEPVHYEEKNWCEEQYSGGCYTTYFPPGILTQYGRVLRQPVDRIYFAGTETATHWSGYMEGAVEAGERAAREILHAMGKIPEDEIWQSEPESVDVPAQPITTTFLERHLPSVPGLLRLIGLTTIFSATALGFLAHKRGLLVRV

[8] = species: Homo sapiens; test: Selectivity index, ratio of Ki for human MAO-A to Ki for human MAO-B
[9] = biological target: T3, Amine oxidase [flavin-containing] A (Homo sapiens, UniProt P21397)
T3 sequence (P21397 whole entry): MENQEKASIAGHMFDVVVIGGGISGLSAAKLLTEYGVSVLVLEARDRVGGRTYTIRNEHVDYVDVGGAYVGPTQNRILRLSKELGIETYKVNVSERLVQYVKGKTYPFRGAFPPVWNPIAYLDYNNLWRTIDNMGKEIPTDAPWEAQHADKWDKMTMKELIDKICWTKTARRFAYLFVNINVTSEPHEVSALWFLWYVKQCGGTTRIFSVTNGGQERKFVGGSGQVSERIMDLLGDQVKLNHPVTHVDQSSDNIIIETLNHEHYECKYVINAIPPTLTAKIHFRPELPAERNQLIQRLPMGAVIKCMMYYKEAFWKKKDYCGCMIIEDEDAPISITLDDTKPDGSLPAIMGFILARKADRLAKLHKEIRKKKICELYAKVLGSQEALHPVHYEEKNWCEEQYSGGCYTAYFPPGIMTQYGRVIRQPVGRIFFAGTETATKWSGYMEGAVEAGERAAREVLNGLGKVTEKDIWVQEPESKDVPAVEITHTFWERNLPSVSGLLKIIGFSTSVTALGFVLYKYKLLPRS

[10] = biological target: T1, Carbonic anhydrase 9; test: Inhibition of human CA9 preincubated for 15 mins by phenol red dye based stopped flow CO2 hydration assay
[11] = test system: HSC-3; test: Cytotoxicity against human HSC-3 cells assessed as reduction in cell viability incubated for 48 hrs by MTT assay; format: functional
[12] = test system: HSC-2; test: Cytotoxicity against human HSC-2 cells assessed as reduction in cell viability incubated for 48 hrs by MTT assay; format: functional
[13] = test system: Ca9-22; test: Cytotoxicity against human Ca9-22 cells assessed as reduction in cell viability incubated for 48 hrs by MTT assay; format: functional
[14] = Cytotoxicity against human HPLF cells assessed as reduction in cell viability incubated for 48 hrs by MTT assay; format: functional
[15] = Cytotoxicity against human HPC cells assessed as reduction in cell viability incubated for 48 hrs by MTT assay; format: functional
[16] = biological target: Carbonic anhydrase 12 (Homo sapiens, UniProt O43570); test: Inhibition of human CA12 preincubated for 15 mins by phenol red dye based stopped flow CO2 hydration assay
[17] = Cytotoxicity against human HGF cells assessed as reduction in cell viability incubated for 48 hrs by MTT assay; format: functional
[18] = species: Mus musculus; test: Antidepressant activity in Swiss albino mouse assessed as decrease in immobility time by forced swimming test; format: functional; also: test concentration or dose not given here
[19] = species: Mus musculus; test: Antidepressant activity in Swiss albino mouse assessed as decrease in immobility time by tail suspension test; format: functional; also: test concentration or dose not given here

Sequence of Carbonic anhydrase 4 (P22748 whole entry): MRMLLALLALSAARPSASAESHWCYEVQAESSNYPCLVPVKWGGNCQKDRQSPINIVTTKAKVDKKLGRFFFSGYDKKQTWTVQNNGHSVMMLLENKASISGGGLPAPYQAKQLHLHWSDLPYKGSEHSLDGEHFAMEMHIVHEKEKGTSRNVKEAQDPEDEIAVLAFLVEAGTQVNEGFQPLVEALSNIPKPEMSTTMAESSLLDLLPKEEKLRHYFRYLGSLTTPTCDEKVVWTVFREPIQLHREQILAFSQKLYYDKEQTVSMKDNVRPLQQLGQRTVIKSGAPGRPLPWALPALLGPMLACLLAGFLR
Sequence of Carbonic anhydrase 1 (P00915 whole entry): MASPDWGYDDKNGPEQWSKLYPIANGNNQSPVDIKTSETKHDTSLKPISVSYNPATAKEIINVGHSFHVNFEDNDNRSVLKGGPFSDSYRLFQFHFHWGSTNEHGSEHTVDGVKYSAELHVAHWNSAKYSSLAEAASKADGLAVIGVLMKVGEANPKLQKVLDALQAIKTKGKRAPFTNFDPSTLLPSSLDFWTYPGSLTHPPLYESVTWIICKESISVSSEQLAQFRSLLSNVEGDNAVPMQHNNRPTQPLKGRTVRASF
Sequence of Carbonic anhydrase 12 (O43570 whole entry): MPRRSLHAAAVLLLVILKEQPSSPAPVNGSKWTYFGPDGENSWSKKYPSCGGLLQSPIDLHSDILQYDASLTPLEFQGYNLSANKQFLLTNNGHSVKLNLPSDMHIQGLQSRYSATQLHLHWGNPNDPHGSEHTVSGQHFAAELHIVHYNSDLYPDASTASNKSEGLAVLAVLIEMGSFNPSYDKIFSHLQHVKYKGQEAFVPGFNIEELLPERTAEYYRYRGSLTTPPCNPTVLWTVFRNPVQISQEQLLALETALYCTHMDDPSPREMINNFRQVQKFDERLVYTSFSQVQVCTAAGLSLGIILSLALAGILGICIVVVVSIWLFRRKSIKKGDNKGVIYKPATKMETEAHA

SMILES: Clc1ccc(C2=NNC(c3ccc(Cl)cc3)C2)cc1 (stereo not given)
- Time [1]: 21.17 s
- Time [2]: 21.17 s

SMILES: c1csc(C2CC(c3cccc4ccccc34)=NN2)c1 (stereo not given)
- Time [1]: 21.17 s
- Time [2]: 21.17 s

SMILES: NS(=O)(=O)c1ccc(N2N=C(c3ccc(O)cc3)CC2c2ccc(F)cc2)cc1 (stereo not given)
- Ki [10]: 53.5 nM
- CC50 [11]: 39300 nM
- CC50 [12]: 39300 nM
- CC50 [13]: 39300 nM
- CC50 [14]: 39300 nM
- CC50 [15]: 39300 nM
- Ki [16]: 6.2 nM
- CC50 [17]: 39300 nM

SMILES: CC(=O)N1N=C(c2ccc(OS(N)(=O)=O)cc2)CC1c1cc(Cl)ccc1Cl (stereo not given)
- Ki [3]: 2460 nM
- Ki [4]: 17.7 nM
- Ki [5]: 14.8 nM
- Ki [6]: 0.4 nM

SMILES: c1coc(C2CC(c3cccc4ccccc34)=NN2)c1 (stereo not given)
- Time [1]: 21.17 s
- Time [2]: 21.17 s

SMILES: Cc1nc(-c2cccc(Cl)c2Cl)ccc1C1=NNC(c2ccc(Br)cc2)C1 (stereo not given)
- Time [18]: 66.67 s
- Time [19]: 70.33 s

SMILES: Oc1ccc(C2=NNC(c3ccco3)C2)cc1 (stereo not given)
- Time [1]: 21.17 s
- Time [2]: 21.17 s

SMILES: COc1cc(-c2ccc(C3=NNC(c4ccc(Br)cc4)C3)c(C)n2)cc(OC)c1OC (stereo not given)
- Time [18]: 66.67 s
- Time [19]: 70.33 s

SMILES: COc1ccc(C2CC(c3ccccn3)=NN2)cc1OC (stereo not given)
- Time [1]: 21.17 s
- Time [2]: 21.17 s

SMILES: COc1ccc(C2=NN(C(=S)Nc3ccccc3)C(c3ccc(F)cc3)C2)cc1 (stereo not given)
- Ki [7]: 200 nM
- Ratio Ki [8]: 0.000464
- Ki [9]: 0.1 nM

SMILES: Cc1nc(-c2ccc(Br)cc2)ccc1C1=NNC(c2cc(F)cc(F)c2)C1 (stereo not given)
- Time [18]: 66.67 s
- Time [19]: 70.33 s

SMILES: CCNC(=S)N1N=C(c2ccc(C)cc2)CC1c1ccc(F)cc1 (stereo not given)
- Ki [7]: 200 nM
- Ratio Ki [8]: 0.000464
- Ki [9]: 0.1 nM

SMILES: C=CCNC(=S)N1N=C(c2ccc(OC)cc2)CC1c1ccc(F)cc1 (stereo not given)
- Ki [7]: 200 nM
- Ki [9]: 0.1 nM

SMILES: Cc1nc(-c2ccc(Br)cc2)ccc1C1=NNC(c2ccc(Br)cc2)C1 (stereo not given)
- Time [18]: 66.67 s
- Time [19]: 70.33 s

SMILES: CC(=O)N1N=C(c2ccc(OS(N)(=O)=O)cc2)CC1c1ccc([N+](=O)[O-])cc1 (stereo not given)
- Ki [3]: 2460 nM
- Ki [4]: 17.7 nM
- Ki [5]: 14.8 nM
- Ki [6]: 0.4 nM

Now from value to molecule, other results behind:

- Ki [3]: 2460 nM
- Ki [4]: 17.7 nM
- Ki [5]: 14.8 nM
- Ki [6]: 0.4 nM
SMILES: CC(=O)N1N=C(c2ccc(OS(N)(=O)=O)cc2)CC1c1ccccc1Cl (stereo not given)

- Ki [7]: 200 nM
- Ratio Ki [8]: 0.000464
- Ki [9]: 0.1 nM
SMILES: CCNC(=S)N1N=C(c2ccc(Cl)cc2)CC1c1ccc(F)cc1 (stereo not given)

- Ki [7]: 200 nM
- Ratio Ki [8]: 0.000464
- Ki [9]: 0.1 nM
SMILES: Fc1ccc(C2CC(c3ccccc3)=NN2C(=S)Nc2ccccc2)cc1 (stereo not given)

- Ki [10]: 53.5 nM
- Ki [16]: 6.2 nM
SMILES: NS(=O)(=O)c1ccc(N2N=C(c3ccc(O)cc3)CC2c2ccc([N+](=O)[O-])cc2)cc1 (stereo not given)
- CC50 [11]: 39300 nM
- CC50 [12]: 39300 nM
- CC50 [14]: 39300 nM
- CC50 [15]: 39300 nM
- CC50 [17]: 39300 nM

- Ki [7]: 200 nM
- Ratio Ki [8]: 0.000464
- Ki [9]: 0.1 nM
SMILES: Fc1ccc(C2CC(c3ccc(Cl)cc3)=NN2C(=S)Nc2ccccc2)cc1 (stereo not given)

- Ki [7]: 200 nM
- Ratio Ki [8]: 0.000464
- Ki [9]: 0.1 nM
SMILES: CNC(=S)N1N=C(c2ccc(C)cc2)CC1c1ccc(F)cc1 (stereo not given)

- Ki [7]: 200 nM
- Ratio Ki [8]: 0.000464
- Ki [9]: 0.1 nM
SMILES: CNC(=S)N1N=C(c2ccc(Cl)cc2)CC1c1ccc(F)cc1 (stereo not given)

- Ki [3]: 2460 nM
- Ki [4]: 17.7 nM
- Ki [5]: 14.8 nM
- Ki [6]: 0.4 nM
SMILES: CC(=O)N1N=C(c2ccc(OS(N)(=O)=O)cc2)CC1c1ccc(C(F)(F)F)cc1 (stereo not given)

- Ki [10]: 53.5 nM
- Ki [16]: 6.2 nM
SMILES: NS(=O)(=O)c1ccc(N2N=C(c3ccc(O)cc3)CC2c2ccc(Cl)cc2)cc1 (stereo not given)
- CC50 [11]: 39300 nM
- CC50 [12]: 39300 nM
- CC50 [13]: 39300 nM
- CC50 [14]: 39300 nM
- CC50 [15]: 39300 nM
- CC50 [17]: 39300 nM
